Where two headings read alike, the source gives them in different places.
Tests used:
HDAC6 = HDAC6 (Homo sapiens (Human), UniProt Q9UBN7); test: In vitro HDACi assay, HDAC6; type: biochemical; settings: Table 3; read-out: IC50 (nM) HDAC6
Procedure: (§1) In Vitro HDACi Assay for Determination of IC50 Values
(§2) The assay has been carried out in white 96 well formats according to the BIOMOL's method. […] The reaction mixture was incubated at room temperature for 2 hours. Flur de lys Developer was added and the reaction was incubated for 10 min. Briefly, deacetylation of the substrate sensitizes to the developer, which then generates a fluorophore. The fluorophore is excited with 360 nm light and the emitted light (460 nm) is detected on a fluorometric plate reader (Molecular Device Ultra Microplate detection system, MD Group Ltd).
(§3) The analytical software, Prism 4.0 (GraphPad Software Inc) has been used to generate IC50 from a series of data.

[1] = Microsomal stability and clearance; type: in vitro ADME, human, mouse; settings: microsomal stability; Table 4
Procedure: Measure of Microsomal Stability and Clearance with Compounds of this Invention
Verapamil (positive control) and compound solution, both at 10 mM, are diluted 200 fold. There are six reaction time points in the experiment (0 min, 5 min, 15 min, 30 min, 45 min, and 60 min), and triplicate samples are used for each data point. There are controls for time zero and negative drug effect (negative control containing no incubation buffer or enzyme). For each compound or Verapamil sample, there are also samples treated with compound or Verapamil at concentrations of no positive effect (at 5 μM and 2.5 μM, respectively). Diluted positive control (Verapamil) and compound solution are mixed with pre-heated (37° C.) incubation buffer (100 mM potassium phosphate buffer, NADPH regeneration system solution B, NAPDH regeneration system solution A, HLM/MLM in Milli-Q ultrapure water), and incubated at 37° C. for 10 min. 100 μL of stop solution mixture is (containing 80% acetonitrile, and 20% DMSO, both of HPLC grade) is dispensed into wells of separate sampling plates into each well. At each reaction time point (0 min, 5 min, 15 min, 30 min, 45 min, and 60 min) 50 μL of reaction solution is taken from wells in the incubation plate and transferred to its corresponding well in the sampling plate, and mixed by pipetting up and down with stop solution already added there. The sampling plates are then covered, placed on ice, and centrifuged at 2,000 rpm at 4° C. for 15 min. 100 μL supernatant is then taken from each well to LC/MS analysis (or stored at 4° C. in refrigerator until analysis).
Data analysis: % remaining of compound is calculated by area of each time point with respect to time 0% remaining against time (min) curve is plotted using the first-phase exponential decay equation y=y0e(−kT) on the Prism 4.0. Results are shown in the format of TOP, K, t1/2 (min), R2 value and % remaining against time curve.

BXPC-3 = test: Cell-based proliferation assay (SRB), BXPC-3; settings: Homo sapiens
Colo205 = test: Cell-based proliferation assay (SRB), Colo205; settings: Homo sapiens
Procedure: (§4) Cell-Based Proliferation Assay for Determination of GI50 Values
(§5) A rapid multiwell plate assay using Sulforhodamine B (SRB) protein stain was adopted to evaluate the growth inhibitory effects of the compounds of the present invention. The screening panel of cancer cell lines includes Colo205 and HCT116 colon cancer cells, MDA-MB231 and MDA-MB435 chest cancer cells, A549 lung cancer cells, and Chinese hamster ovary cell line CHO, which were obtained from ATCC.
(§6) The cell line Colo205 is grown in RPMI 1640 medium containing 2 mM L-glutamine, 5% fetal bovine serum, and 1.0 mM sodium pyruvic acid. Cell lines A549 and MDA-MB231 are grown in RPMI 1640 medium containing 2 mM L-glutamine and 5% fetal bovine serum. The cell line MDA-MB435 is grown in DMEM medium containing 2 mM L-glutamine and 5% fetal bovine serum. The cell lines HCT 116 is grown in IMEM medium containing 2 mM L-glutamine and 5% fetal bovine serum. The CHO cell line, used as a normal control on toxicity, is grown in a special medium for cell line. For a typical screening experiment, A549 and Colo205 cells are inoculated into 96-well microtiter plates, with 100 μL per well, and 2000 and 5000 cells per well respectively for either cell line. MDA-MB435, HCT116, MDA-MB231 and CHO cells are also inoculated into 96-well microtiter plates, with 6000 cells per well. After cell inoculation, the microtiter plates are incubated at 37° C., 5% CO2, and 100% relative humidity for 24 hr in order to make cells adhere to well wall.
(§7) After 24 h incubation or time zero for drug addition, with each cell line 50 μl of cold 50% (w/v) TCA is added to wells used for control to fix cells in situ. Also at time zero, cells in other wells are treated with 100 μl of compound of different concentrations for 24 hr, 48 hr, and 72 hr respectively, with varying final compound concentration (0.1 μM, 1 μM, 5 μM 10 μM). For each treatment duration at each compound concentration, there are triplicate wells, as well as an array of control wells including a blank control well (cell culture medium only, no cells), a no-compound control well (adding same volume of cell culture medium but no compound), a positive control well (treated with Suberoylanilide hydroxamic acid (SAHA)), and normal cell well control (CHO cells). Following the addition of compounds, cell plates are incubated for 24 h, 48 h or 72 h per treatment group at 37° C., 5% CO2, and 100% relative humidity. The Treatment is then terminated by addition of cold TCA and incubation of 1 hr at 4° C. The supernatant is discarded, and all wells are washed five times with de-ioned water and air dried. Then each well is added with 100 μl sulforhodamine B (SRB) solution (0.4% (w/v) made in 1% acetic acid) and cell plates are incubated for 20-30 minutes at room temperature. After staining, unbound dye is removed by washing five times with 1% acetic acid and the plates are air dried. Bound stain is subsequently solubilized with 10 mM (200 μL) Tris base with the help of 5 min platform vibration or pipetting up and down, and the absorbance is read on an automated plate reader (M5 detection system, MD Group Ltd.) at a wavelength of 565 nm (calibrated zero reading of blank control at wavelength of 690 nm). The analytical software, XL-fit has been used to generate GI50 from a series of data thus obtained.

MDAMB231 = test: Cell-based proliferation assay (SRB), MDAMB231; settings: Homo sapiens, MDA-MB-231; Table 4
Procedure: as §4, §5, §6, §7

HDACs = test: In vitro HDACi assay (BIOMOL fluorescent-based HDAC activity assay); type: biochemical
Procedure: as §1, §2, §3

HL-60 = test: Cell-based proliferation assay (SRB), HL-60; settings: Homo sapiens
HCT116 = test: Cell-based proliferation assay (SRB), HCT116; settings: Homo sapiens
Procedure: as §4, §5, §6, §7

MDAMB435 = test: Cell-based proliferation assay (SRB), MDAMB435; settings: Homo sapiens
Procedure: as §4, §5, §6, §7

SKOV-3 = test: Cell-based proliferation assay (SRB), SKOV-3; settings: Homo sapiens
Procedure: as §4, §5, §6, §7

[2] = Table 3, read-out: IC50 (nM) HDACs
[3] = Table 4, read-out: HDAC enzyme inhibition activity IC50

Chain of HDAC6 (Q9UBN7 whole entry, species assumed): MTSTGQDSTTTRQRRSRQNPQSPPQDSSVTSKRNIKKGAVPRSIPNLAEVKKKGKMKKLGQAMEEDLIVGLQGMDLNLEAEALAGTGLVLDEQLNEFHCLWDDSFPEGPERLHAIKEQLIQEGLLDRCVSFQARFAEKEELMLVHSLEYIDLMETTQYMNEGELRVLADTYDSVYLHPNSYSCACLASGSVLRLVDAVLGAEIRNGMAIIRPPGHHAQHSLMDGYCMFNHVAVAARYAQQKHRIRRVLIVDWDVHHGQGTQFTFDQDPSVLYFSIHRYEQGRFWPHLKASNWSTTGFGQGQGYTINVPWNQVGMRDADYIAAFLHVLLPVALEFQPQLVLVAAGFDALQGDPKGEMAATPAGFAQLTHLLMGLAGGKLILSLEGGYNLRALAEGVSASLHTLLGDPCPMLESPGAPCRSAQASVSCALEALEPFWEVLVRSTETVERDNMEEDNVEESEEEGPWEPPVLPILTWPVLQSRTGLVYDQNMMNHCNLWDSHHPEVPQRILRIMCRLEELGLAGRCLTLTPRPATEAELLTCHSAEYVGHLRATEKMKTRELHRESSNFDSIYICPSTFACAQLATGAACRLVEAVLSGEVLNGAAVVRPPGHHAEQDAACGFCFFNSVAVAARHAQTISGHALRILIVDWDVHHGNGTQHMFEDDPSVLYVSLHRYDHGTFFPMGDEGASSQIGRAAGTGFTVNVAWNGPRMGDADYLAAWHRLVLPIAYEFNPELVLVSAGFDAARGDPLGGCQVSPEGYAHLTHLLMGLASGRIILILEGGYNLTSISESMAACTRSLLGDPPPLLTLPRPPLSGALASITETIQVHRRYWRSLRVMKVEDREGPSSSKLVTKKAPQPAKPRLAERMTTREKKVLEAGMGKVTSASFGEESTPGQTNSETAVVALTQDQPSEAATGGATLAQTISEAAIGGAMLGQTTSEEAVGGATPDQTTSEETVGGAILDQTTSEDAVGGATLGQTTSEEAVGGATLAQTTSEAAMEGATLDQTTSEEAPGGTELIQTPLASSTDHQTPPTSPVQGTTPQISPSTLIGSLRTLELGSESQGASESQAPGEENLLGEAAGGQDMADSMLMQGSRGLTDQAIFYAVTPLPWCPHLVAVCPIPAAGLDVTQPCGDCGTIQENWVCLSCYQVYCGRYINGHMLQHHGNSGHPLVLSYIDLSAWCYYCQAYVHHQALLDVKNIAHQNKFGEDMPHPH

| SMILES | IC50 (HDAC6) | half-life [1] | GI50 (BXPC-3; BXPC-3, Table 3) | GI50 (Colo205; COLO 205, Table 3) | GI50 (Colo205; COLO 205, Table 4) | GI50 (MDAMB231) | IC50 (HDACs; [2]) | IC50 (HDACs; [3]) | GI50 (HL-60; HL-60, Table 3) | GI50 (HL-60; HL-60, Table 4) | GI50 (HCT116; HCT-116, Table 3) | GI50 (HCT116; HCT-116, Table 4) | GI50 (MDAMB435; MDA-MB-435, Table 3) | GI50 (MDAMB435; MDA-MB-435, Table 4) | GI50 (SKOV-3; SK-OV-3, Table 3) | GI50 (SKOV-3; SK-OV-3, Table 4) | GI50 (BXPC-3; BXPC-3, Table 4) |
| --- | --- | --- | --- | --- | --- | --- | --- | --- | --- | --- | --- | --- | --- | --- | --- | --- | --- |
| CCN(CC)CCSc1ccc(/C=C/C(=O)NO)cc1NCCCc1ccccc1 [Example 1, 3-(4-(2-(diethylamino)ethylthio)-3-(3-phenylpropylamino)phenyl)-N-hydroxy-acrylamide] | 627 nM | 1.4 h | 15 µM | 5.68 µM | 5.68 µM | 3.49 µM | 98 nM | 98000 nM | 3.52 µM | 3.52 µM | 0.78 µM | 0.78 µM | 3.33 µM | 3.33 µM | 4.57 µM | 4.57 µM |  |
| CCCNc1cc(/C=C/C(=O)NO)ccc1SCCN(CC)CC [Example 3, 3-(4-(2-(diethylamino)ethylthio)-3-(propylamino)phenyl)-N-hydroxy-acrylamide] | 653 nM | 1.8 h | 14.5 µM | 2.95 µM | 2.95 µM | 2.98 µM | 19 nM | 19000 nM | 1.98 µM | 1.98 µM | 3.65 µM | 3.65 µM | 2.6 µM | 2.6 µM | 2.58 µM | 2.58 µM |  |
| CCN(CC)CCSc1ccc(/C=C/C(=O)NO)cc1NC(C)=O [Example 4] | 357 nM | 1.6 h |  |  | 2 µM | 4.63 µM | > 100 nM | 86000 nM |  | 1.63 µM |  | 2.02 µM |  | 3.56 µM |  | 0.7 µM | 3.56 µM |
| CCN(CC)CCSc1ccc(/C=C/C(=O)NO)cc1[N+](=O)[O-] [Example 5, 3-(4-(2-(diethylamino)ethylthio)-3-nitrophenyl)-N-hydroxy-acrylamide] | 313 nM | 2.2 h | 95.4 µM | 2 µM |  | 1.92 µM | 86 nM | 35000 nM | 1.63 µM |  | 2.02 µM |  | 3.56 µM |  | 0.7 µM |  |  |
| C=CCNc1cc(/C=C/C(=O)NO)ccc1SCCN(CC)CC [Example 7, 3-(3-(allylamino)-4-(2-(di-ethylamino)ethylthio)phenyl)-N-hydroxy-acrylamide] | 350 nM |  |  |  |  |  | > 100 nM |  |  |  |  |  |  |  |  |  |  |
| CCN(CC)CCSc1ccc(/C=C/C(=O)NO)cc1NC [Example 8, 3-(4-(2-(diethylamino)ethylthio)-3-(methylamino)phenyl)-N-hydroxy-acrylamide] | 800 nM |  | 16 µM | 10.6 µM |  |  | 95 nM |  | 15.2 µM |  | 13.9 µM |  | 16.6 µM |  | 15.6 µM |  |  |
| CCN(CC)CCSc1ccc(/C=C/C(=O)NO)cc1N [Example 9, 3-(3-amino-4-(2-(diethylamino)ethylthio)phenyl)-N-hydroxy-acrylamide] | 295 nM |  |  |  |  |  | > 100 nM |  |  |  |  |  |  |  |  |  |  |
| CCCCCNC(=O)Nc1cc(/C=C/C(=O)NO)ccc1SCCN(CC)CC [Example 10, 3-(4-(2-(diethylamino)ethylthio)-3-(3-pentylureido)phenyl)-N-hydroxy-acrylamide] | 200 nM |  | 19.9 µM | 17.6 µM |  |  | 55 nM |  | 15.7 µM |  | 18.2 µM |  | 10.2 µM |  | 16.9 µM |  |  |
| C=CCCCNc1cc(/C=C/C(=O)NO)ccc1SCCN(CC)CC [Example 12, 3-(4-(2-(diethylamino)ethylthio)-3-(pent-4-enylamino)phenyl)-N-hydroxy-acrylamide] | 310 nM |  |  |  |  |  | > 100 nM |  |  |  |  |  |  |  |  |  |  |
| CCN(CC)CCSc1ccc(/C=C/C(=O)NO)cc1NC(=O)C(Cl)Cl [Example 13, 3-(3-(2,2-dichloroacetamido)-4-(2-(diethylamino)ethylthio)phenyl)-N-hydroxy-acrylamide] |  |  | 97.7 µM | 5.63 µM |  |  |  |  | 4.31 µM |  | 2.56 µM |  | 5.96 µM |  | 3.82 µM |  |  |
